Source: ChEMBL document CHEMBL5257035, “Nucleoside Derived Antibiotics to Fight Microbial Drug Resistance: New Utilities for an Established Class of Drugs?” (J Med Chem, 2016)
Converted amounts (≈) assume the structure as drawn.

Columns and labels:
Mycobacterium kansasii = assay: Antimycobacterial activity against Mycobacterium kansasii ATCC12478 assessed as microbial growth reduction; type: functional
[1] = tested on: Mycobacterium intracellulare; assay: Antimycobacterial activity against Mycobacterium intracellulare ATCC1954 E-3 assessed as microbial growth reduction; type: functional
Moraxella catarrhalis = assay: Antibacterial activity against Moraxella catarrhalis assessed as bacterial growth inhibition incubated for 24 hrs by micro-broth dilution method; type: functional
Klebsiella pneumoniae = assay: Antibacterial activity against Klebsiella pneumoniae assessed as bacterial growth inhibition incubated for 24 hrs by micro-broth dilution method; type: functional
Haemophilus influenzae = assay: Antibacterial activity against Haemophilus influenzae assessed as bacterial growth inhibition incubated for 24 hrs by micro-broth dilution method; type: functional
Bacillus subtilis [2] = assay: Antibacterial activity against Bacillus subtilis assessed as bacterial growth inhibition incubated for 24 hrs by micro-broth dilution method; type: functional
Enterococcus faecalis = assay: Antibacterial activity against Enterococcus faecalis assessed as bacterial growth inhibition incubated for 24 hrs by micro-broth dilution method; type: functional
Enterococcus faecium [3] = assay: Antibacterial activity against Enterococcus faecium assessed as bacterial growth inhibition incubated for 24 hrs by micro-broth dilution method; type: functional
Streptococcus pyogenes [4] = assay: Antibacterial activity against Streptococcus pyogenes assessed as bacterial growth inhibition incubated for 24 hrs by micro-broth dilution method; type: functional
Streptococcus pneumoniae = assay: Antibacterial activity against Streptococcus pneumoniae B1 assessed as bacterial growth inhibition incubated for 24 hrs by micro-broth dilution method; type: functional
[5] = tested on: Staphylococcus saprophyticus; assay: Antibacterial activity against Staphylococcus saprophyticus ATCC 15305 assessed as bacterial growth inhibition after 20 hrs by CLSI based-broth microdilution method; type: functional
[6] = tested on: Staphylococcus epidermidis; assay: Antibacterial activity against Staphylococcus epidermidis ATCC 12228 assessed as microbial growth inhibition incubated for 24 hrs; type: functional
Staphylococcus aureus [7] = assay: Antibacterial activity against Staphylococcus aureus ATCC 25923 assessed as bacterial growth inhibition measured after 18 hrs by CLSI protocol based two-fold serial microdilution method; type: functional
Bacillus subtilis [8] = assay: Antibacterial activity against Bacillus subtilis ATCC 6633 assessed as bacterial growth inhibition by agar diffusion method; type: functional
[9] = Toxicity in rat; details: in vivo
Bacillus subtilis [10] = assay: Antibacterial activity against Bacillus subtilis ATCC 6633 assessed as reduction in bacterial cell growth; type: functional
[11] = tested on: Mycolicibacterium smegmatis; assay: Antibacterial activity against Mycobacterium smegmatis ATCC 607 assessed as bacterial growth inhibition; type: functional
[12] = target: Phospho-N-acetylmuramoyl-pentapeptide-transferase (Staphylococcus aureus, UniProt P0C1R8); assay: Inhibition of Staphylococcus aureus MraY
[13] = target: Hypoxanthine-guanine phosphoribosyltransferase (Homo sapiens, UniProt P00492); assay: Binding affinity to human HGPRT assessed as inhibition of constant
[14] = tested on: Mycobacterium tuberculosis; assay: Antimycobacterial activity against Mycobacterium tuberculosis H37Rv assessed as reduction in microbial growth after 7 days by alamar blue assay; type: functional, organism-based; details: 168 h
[15] = tested on: Mycobacterium tuberculosis; assay: Antimycobacterial activity against Mycobacterium tuberculosis assessed as reduction in microbial growth; type: functional
Mycobacterium avium = assay: Antimycobacterial activity against Mycobacterium avium ATCC 25291 assessed as bacterial growth inhibition; type: functional
[16] = tested on: Mycobacterium tuberculosis; assay: Antimycobacterial activity against Mycobacterium tuberculosis H37Rv assessed as inhibition of bacterial growth; type: functional
[17] = tested on: Mycolicibacterium smegmatis; assay: Antimycobacterial activity against Mycobacterium smegmatis SG 125A assessed as inhibition of bacterial growth; type: functional
[18] = Inhibition of Escherichia coli topoisomerase 4
Staphylococcus aureus [19] = assay: Antimicrobial activity against methicillin-resistant Staphylococcus aureus 10925 assessed as reduction in microbial growth by broth microdilution method; type: functional
Enterococcus faecium [20] = assay: Antimicrobial activity against Enterococcus faecium ATCC 19434 assessed as reduction in microbial growth by broth microdilution method; type: functional
Streptococcus pyogenes [21] = assay: Antimicrobial activity against Streptococcus pyogenes ATCC 12344 assessed as reduction in microbial growth by broth microdilution method; type: functional
Pseudomonas aeruginosa [22] = assay: Antibacterial activity against beta-lactam resistant Pseudomonas aeruginosa assessed as bacterial growth inhibition; type: functional
Pseudomonas aeruginosa [23] = assay: Antibacterial activity against Pseudomonas aeruginosa assessed as bacterial growth inhibition; type: functional

Hypoxanthine-guanine phosphoribosyltransferase, sequence (P00492 whole entry): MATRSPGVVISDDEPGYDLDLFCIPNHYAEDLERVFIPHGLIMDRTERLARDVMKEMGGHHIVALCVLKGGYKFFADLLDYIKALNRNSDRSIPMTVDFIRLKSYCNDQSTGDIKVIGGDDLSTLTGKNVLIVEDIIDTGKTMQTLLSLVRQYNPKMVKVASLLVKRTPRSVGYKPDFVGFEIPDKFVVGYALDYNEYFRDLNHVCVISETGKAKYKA
Phospho-N-acetylmuramoyl-pentapeptide-transferase, sequence (P0C1R8 whole entry): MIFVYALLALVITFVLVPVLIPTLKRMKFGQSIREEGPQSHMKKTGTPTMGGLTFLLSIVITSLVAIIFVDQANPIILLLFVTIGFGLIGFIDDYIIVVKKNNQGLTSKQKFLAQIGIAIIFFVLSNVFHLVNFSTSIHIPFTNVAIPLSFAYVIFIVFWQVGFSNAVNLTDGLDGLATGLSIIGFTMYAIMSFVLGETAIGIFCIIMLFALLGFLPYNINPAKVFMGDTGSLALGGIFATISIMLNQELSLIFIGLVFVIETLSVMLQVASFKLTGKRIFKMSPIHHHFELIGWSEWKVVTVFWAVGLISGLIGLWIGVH

Question: Which MIC (Mycobacterium kansasii) does the source give for CO[C@H]1[C@@H](O)[C@H](n2ccc(=O)[nH]c2=O)O[C@@H]1[C@@H](O[C@@H]1OC(C(=O)Nc2ccc(F)c(F)c2)=C[C@@H](O)[C@H]1O)C(N)=O here?
Answer: The MIC was 0.5 µg/mL (≈ 0.876 µM).

Question: And the MIC [1]?
Answer: Its MIC is 0.5 µg/mL (≈ 0.876 µM).

Question: What does the source list for CCC(C)C(N)C(=O)NS(=O)(=O)OC[C@H]1O[C@@H](CCn2nnc(-c3ccc(Oc4ccccc4)cc3)n2)[C@H](O)[C@@H]1O (stereo partly specified)?
Answer: MIC (Moraxella catarrhalis): 2 µg/mL (≈ 3.39 µM); MIC (Klebsiella pneumoniae): 2 µg/mL (≈ 3.39 µM); MIC (Haemophilus influenzae): 2 µg/mL (≈ 3.39 µM); MIC (Bacillus subtilis [2]): 2 µg/mL (≈ 3.39 µM); MIC (Enterococcus faecalis): 2 µg/mL (≈ 3.39 µM); MIC (Enterococcus faecium [3]): 2 µg/mL (≈ 3.39 µM); MIC (Streptococcus pyogenes [4]): 2 µg/mL (≈ 3.39 µM); MIC (Streptococcus pneumoniae): 2 µg/mL (≈ 3.39 µM); MIC [5]: 2 µg/mL (≈ 3.39 µM); MIC [6]: 2 µg/mL (≈ 3.39 µM); MIC (Staphylococcus aureus [7]): 2 µg/mL (≈ 3.39 µM)

Question: Which MIC (Bacillus subtilis [8]) does the source give for CCC(C)CCCCCCCCCCC(=O)N[C@H]1[C@H](O[C@@H]2O[C@@H](CO)[C@H](O)[C@H](O)[C@H]2NC(C)=O)O[C@H](C[C@@H](C)[C@H]2O[C@@H](n3ccc(=O)[nH]c3=O)[C@H](O)[C@@H]2O)[C@H](O)[C@@H]1O (stereo partly specified) here?
Answer: The MIC was 0.1 µg/mL (≈ 0.12 µM).

Question: What about the LD50 [9] of the same compound?
Answer: Its LD50 is 0.137 mg/kg.

Question: What about the MIC (Bacillus subtilis [10]) of the same compound?
Answer: The MIC was 0.1 µg/mL (≈ 0.12 µM).

Question: Which MIC [11] does the source give for CO[C@H]1[C@@H](O)[C@H](n2ccc(=O)[nH]c2=O)O[C@@H]1[C@@H](O[C@@H]1OC(C(=O)N[C@H]2CCC[C@@H](C)NC2=O)=C[C@@H](O)[C@H]1O)C(N)=O here?
Answer: The MIC was 6.25 µg/mL (≈ 10.7 µM).

Question: What about the IC50 [12] of the same compound?
Answer: The IC50 was 17 nM.

Question: For CCOC(=O)[C@H](Cc1ccccc1)NP(=O)(N[C@@H](Cc1ccccc1)C(=O)OCC)OCOCCN, which Ki [13] is on record?
Answer: Its Ki is 690 nM.

Question: And the IC50 [14]?
Answer: The IC50 was 5000 nM.

Question: And the MIC [15]?
Answer: Its MIC is 4.5 µM.

Question: With CN1C(=O)[C@H]([C@H](O[C@H]2O[C@@H](CN)[C@H](O)[C@@H]2O)[C@H]2O[C@@H](n3ccc(=O)[nH]c3=O)[C@H](O)[C@@H]2O)N(C)CC=C1C(=O)O as the compound, how does the MIC (Mycobacterium avium) read?
Answer: The MIC was 0.05 µg/mL (≈ 0.0897 µM).

Question: Which MIC (Bacillus subtilis [8]) does the source give for CCC(C)CCCCCCCC/C=C/C(=O)N[C@H]1[C@H](O[C@@H]2O[C@@H](CO)[C@H](O)[C@H](O)[C@H]2NC(C)=O)O[C@H](C[C@@H](C)[C@H]2O[C@@H](N3CCC(=O)NC3=O)[C@H](O)[C@@H]2O)[C@H](O)[C@@H]1O (stereo partly specified) here?
Answer: The MIC was 0.31 µg/mL (≈ 0.373 µM).

Question: And the MIC [16]?
Answer: The MIC was 10 µg/mL (≈ 12 µM).

Question: What about the MIC [17] of the same compound?
Answer: The MIC was 3.1 µg/mL (≈ 3.73 µM).

Question: With CCC(C)C(N)C(=O)NS(=O)(=O)OC[C@H]1O[C@@H](CCn2nnc(-c3ccccc3)n2)[C@H](O)[C@@H]1O (stereo partly specified) as the compound, how does the Ki [18] read?
Answer: Its Ki is 1.3 µg/mL (≈ 2.61 µM).

Question: With CCCCCCCCCCCCC[C@@H](CC(=O)O[C@H]1CN(C)[C@@H]([C@H](O[C@H]2O[C@@H](CN)[C@H](O)[C@@H]2O)[C@H]2O[C@@H](n3ccc(=O)[nH]c3=O)[C@H](OS(=O)(=O)O)[C@@H]2O)C(=O)N(C)[C@@H]1C(=O)O)OC(=O)C[C@H](C)CC(=O)O[C@@H]1O[C@@H](C)[C@H](OC)[C@@H](OC)[C@H]1OC as the compound, how does the MIC (Staphylococcus aureus [19]) read?
Answer: The MIC was 4 µg/mL.

Question: What about the MIC (Enterococcus faecium [20]) of the same compound?
Answer: Its MIC is 4 µg/mL.

Question: And the MIC (Streptococcus pyogenes [21])?
Answer: The MIC was 4 µg/mL.

Question: With CSCC[C@H](NC(=O)NC(Cc1cccc(O)c1)C(=O)O)C(=O)NC(CN(C)C(=O)[C@@H](N)C(Cc1cccc(O)c1)NCC(=O)O)C(=O)N/C=C1/C[C@@H](O)[C@H](n2ccc(=O)[nH]c2=O)O1 (stereo partly specified) as the compound, how does the MIC (Pseudomonas aeruginosa [22]) read?
Answer: Its MIC is 0.1 µg/mL (≈ 0.109 µM).

Question: What about the MIC (Pseudomonas aeruginosa [23]) of the same compound?
Answer: The MIC was 1.5 µg/mL (≈ 1.64 µM).
